Patent US20180147206A1, “ACTIVATION OF NEURONAL STORE-OPERATED CALCIUM ENTRY PATHWAY FOR THE TREATMENT OF ALZHEIMER'S DISEASE” (The Board of Regents of the University of Texas System, priority 2015, published 2018)
Values belong to the molecule of their own block, whether it stands above or below them.

Assays:
[1] = test system: AβPPSwe/PSEN1ΔE9 (AβPP/PS1) transgenic mice; details: previous studies; cited from earlier work
TRPC6 = target: T1, TRPC6 (Homo sapiens, UniProt Q9Y210); assay: Fura-2 Ca2+ imaging in TRPC6-transfected HEK293 cells; format: cell-based; details: for Ca2+ influx: 1 μM; for Ca2+ influx response: TRPC6-transfected cells, 100 μM
T1 construct: expressed in transfected cells; host or cells: HEK293
T1 sequence (Q9Y210 1-931): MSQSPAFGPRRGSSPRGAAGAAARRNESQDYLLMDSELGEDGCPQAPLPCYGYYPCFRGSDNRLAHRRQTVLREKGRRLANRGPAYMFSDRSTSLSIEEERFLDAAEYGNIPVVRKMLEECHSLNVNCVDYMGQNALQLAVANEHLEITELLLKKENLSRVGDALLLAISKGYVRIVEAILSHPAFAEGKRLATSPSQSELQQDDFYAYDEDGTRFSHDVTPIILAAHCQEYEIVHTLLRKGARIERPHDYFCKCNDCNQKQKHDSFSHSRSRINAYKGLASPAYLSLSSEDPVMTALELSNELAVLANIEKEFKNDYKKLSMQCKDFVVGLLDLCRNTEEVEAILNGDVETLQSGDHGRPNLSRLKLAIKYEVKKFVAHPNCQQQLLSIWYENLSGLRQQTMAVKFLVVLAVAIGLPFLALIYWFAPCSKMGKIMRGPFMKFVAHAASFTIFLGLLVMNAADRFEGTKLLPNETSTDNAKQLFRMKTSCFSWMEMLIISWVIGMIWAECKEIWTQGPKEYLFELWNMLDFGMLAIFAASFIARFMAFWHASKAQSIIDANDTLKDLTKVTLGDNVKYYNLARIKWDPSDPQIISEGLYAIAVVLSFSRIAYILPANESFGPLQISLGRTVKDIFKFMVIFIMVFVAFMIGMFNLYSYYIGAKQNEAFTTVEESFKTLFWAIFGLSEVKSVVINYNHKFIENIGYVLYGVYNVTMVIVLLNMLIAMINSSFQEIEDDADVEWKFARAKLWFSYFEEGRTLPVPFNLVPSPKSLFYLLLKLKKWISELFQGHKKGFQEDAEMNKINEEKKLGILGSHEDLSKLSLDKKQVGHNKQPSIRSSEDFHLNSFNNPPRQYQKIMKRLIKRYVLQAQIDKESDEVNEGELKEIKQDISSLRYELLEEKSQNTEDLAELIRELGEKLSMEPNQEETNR

spine nSOC channels = assay: GCamp5.3 Ca2+ imaging of synaptic nSOC in cultured hippocampal neurons; format: cell-based, mouse
[2] = test system: mushroom spines of hippocampal neurons; assay: Dendritic spine analysis in primary hippocampal neural cultures; format: cell-based, mouse; details: for mushroom spine loss: 30 nM for 16 hours
Experimental: FIGS. 4A-E. NSN21778 and Hyperforin rescue synaptic nSOC and mushroom spine loss in AD hippocampal neurons. (FIG. 4A) Chemical structure of NSN21778 and Hyperforin. (FIG. 4B) Time-course of GCaMP5.3 fluorescence signal changes in the spines of wild-type, PS1KI and APPKI hippocampal neurons. The time of extracellular Ca^2+ re-addition is indicated by a black bar above the traces. 100 μM DHPG was added 50 sec prior to Ca^2+ re-addition. The results are shown for control (CON) neurons and for neurons pretreated with 300 nM NSN21778 (+NSN) or 300 nM Hyperforin (+Hyp) for 30 min as indicated. For each experimental group individual spine (grey) and average (red) fluorescence traces are shown. (FIG. 4C) The average nSOC spine peak amplitude is shown for each group of cells shown on panel B. The mean AF/Fo signals for each group and presented as mean±SE (n≥45 spines). ***, p <0.001. (FIG. 4D) Confocal images of wild-type, PS1KI and APPKI hippocampal neurons transfected with TD-Tomato and fixed at DIV15-16. The images are shown for control neurons (CON) and for neurons treated with 30 nM NSN21778 (+NSN) or 30 nM Hyperforin (+Hyp) for 16 hours prior to fixation. Scale bar is 10 μm. (FIG. 4E) The average fraction of mushroom spines for each group of cells shown on FIG. 4D is presented as mean±SE (n≥18 neurons). ***, p <0.001.
FIGS. 5A-E. TRPC6 is a molecular target for NSN21778 and Hyperforin. (FIGS. 5A-B) Time course of Fura-2 Ca^2+ signals is shown for HEK293 cells transfected with EGFP plasmid (GFP) or combination of EGFP and TRPC6 plasmids (TRPC6). Cells were incubated in ACSF media containing 2 mM Ca^2+. In experiments shown in FIG. 5B, cells were moved to modified ACSF media containing 0.1 mM Ca^2+ for 2 min and then returned to the media containing 2 mM Ca^2+ with addition of 100 μM OAG. The time of addition of 1 μM Hyperforin (Hyp) or NSN21778 (NSN) is indicated by red bars above the Fura-2 traces. For each experimental group individual spine (grey) and average (red) fluorescence traces are shown. (FIG. 5C) The average Ca^2+ influx peak is shown for experiments presented on FIGS. 5A-B as mean±SE (n≥81). (FIG. 5D) Confocal images of wild-type and PS1KI hippocampal neurons transfected with TD-Tomato and fixed at DIV15-16. The neurons were infected with lentiviruses encoding control RNAi (siCtrl), RNAi against TRPC6 (siT6) or RNAi against Orai2 (siO2). The images are shown for no drug treated neurons (CON) and for neurons treated with 30 nM NSN21778 (+NSN) or 30 nM Hyperforin (+Hyp) for 16 hours prior to fixation. Scale bar is 10 μm. No drug treated group of wild-type and PS1KI neurons is from the same experiment as shown on FIG. 2A-J. (FIG. 5E) The average fraction of mushroom spines for each group of cells shown on panel A is presented as mean±SE (n≥19 neurons). ***, p <0.001.
Dendritic Spine Analysis in Primary Hippocampal Neural Cultures. The hippocampal cultures of PS1KI, APPKI and WT mice were established from postnatal day 0-1 pups and maintained in culture as the inventors described previously [Zhang, 2010 #5733]. For assessment of synapse morphology, hippocampal cultures were transfected with TD-Tomato plasmid at DIV7 using the calcium phosphate method and fixed (4% formaldehyde, 4% sucrose in PBS, pH 7.4) at DIV15-16. A Z-stack of optical section was captured using 100× objective with a confocal microscope (Carl Zeiss Axiovert 100M with LSM510). 18-20 cultured neurons from three batches of cultures were used for quantitative analysis per genotype. Quantitative analysis for dendritic spines was performed by using NeuronStudio software package [Rodriguez, 2008 #6276]. To classify the shape of neuronal spines in culture, the inventors adapted an algorithm from published method [Rodriguez, 2008 #6276]. In classification of spine shapes the inventors used the following cutoff values: aspect ratio for thin spines (AR_thin(crio))=2.5, head to neck ratio (HNR(crit))=1.4, and head diameter (HD(crit))=0.5 μm. […]

TRPC3/6/7 channels = details: recent study (Montecinos-Oliva et al., 2014); cited from earlier work

Molecule: CC(C)=CCC[C@]1(C)[C@@H](CC=C(C)C)C[C@@]2(CC=C(C)C)C(=O)[C@]1(C(=O)C(C)C)C(=O)C(CC=C(C)C)=C2O [Hyperforin]
- beta-amyloid neurotoxicity and spatial memory impairments [1]: able to prevent
- toxicity, acute (hippocampal neurons): very large Ca^2 elevations and toxicity
- toxicity, overnight (hippocampal neurons): neuronal toxicity in some batches
- Ca2+ influx (TRPC6; TRPC6-transfected HEK293 cells, 2 mM Ca2+): activated Ca^2+ influx
- Ca2+ influx (TRPC6; control HEK293 cells transfected with EGFP plasmid): not in control cells
- spine nSOC (spine nSOC channels; PS1KI and APPKI hippocampal neurons, 300 nM applied prior to Ca2+ re-addition): rescued spine nSOC
- spine nSOC (spine nSOC channels; wild-type spines, 300 nM): no significant effect
- mushroom spines ([2]; PS1KI and APPKI neurons, 30 nM for 16 hr): complete rescue
- mushroom spine loss ([2]; PS1KI cultures infected with control RNAi lentiviruses): rescued mushroom spine loss
- mushroom spine loss ([2]; PS1KI hippocampal neurons following knockdown of TRPC6 or Orai2): failed to rescue mushroom spine loss
- mushroom spine loss ([2]; wild-type neurons with knockdown of TRPC6 or Orai2): failed to rescue
- fraction of mushroom spines ([2]; wild-type neurons, 30 nM for 16 hr): no significant effect

- Ca2+ influx response (TRPC6; standard recording conditions (data not shown)): highly variable responses
- Ca2+ influx response (TRPC6; stores partially depleted by 0.1 mM Ca2+ preincubation): more consistent responses
Molecule: CCCCCCCC/C=C/CCCCCCCC(=O)OCC(CO)OC(C)=O (stereo not shown) [OAG]
- Ca2+ responses in spines (spine nSOC channels; direct application to hippocampal neuronal cultures (data not shown)): induced Ca^2+ responses in just a few spines

Molecule: tetrahydrohyperforin [IDN5706]
- Aβ-induced synaptic plasticity defects (TRPC3/6/7 channels): rescued
